Data on 52 sequences can be found in the supplement of paper PMC11208160.
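Also: IS621 bridge recombinase in Escherichia coli cells against a fixed T5 target plasmid.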

This series in a line: recombinant UMI read abundance after kanamycin selection (control-corrected) (log10(CPM+1)); higher = more efficient recombination; extreme values may be limits of the assay; sequences stand for … in AGTGCAGAGAAAATCGGCCAGTTTTCTCTGCCTGCAGTCCGCATGCCGTGGGACCCCTTGGGTTCTAACCTGTTGCCTAGATTTATGCAGCGGACTGCCTTTCTCCCAAAGTGATAAACCGG…AGGTTGGTTTCACT; site = the 11-nt donor. The method, boiled down: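 Reported values are log10(CPM+1) from a pooled Escherichia coli screen of donor and donor-binding-loop pairs for the IS621 bridge recombinase. Selection used IPTG (0.07 mM) plus kanamycin, against unselected plating, each in two replicates. Recombinant UMIs were amplified across the donor–target junction, sequenced, converted to CPM, averaged over replicates and scaled by control-derived factors.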
Turning to “TAATTGGCATGGACCGGTTTTCCCGGTAATCCGTATTTGTG (site TAGTTGGCTCA)”, the “recombinant UMI read abundance (log10)” value was 0.0118.
Take “TAATTGGCATGGACCGGTTTTCCCGGTAATCCGTATTTGTG (site TATTTGGCTCA)”: the “recombinant UMI read abundance (log10)” value was 0.00466.
The figure for “TACAAGGCATGGACCGGTTTTCCCGGTAATCCGTATTTGGT (site TACAAGGCTAC)” is 0.732.
The figure for “TACACCGCATGGACCGGTTTTCCCGGTAATCCGTATTTGTA (site TACACCGCTTA)” is 1.36; for “TACACTTCATGGACCGGTTTTCCCGGTAATCCGTATTTGGC (site TACACTTCTGC)” it is 0; for “TACAGGCCATGGACCGGTTTTCCCGGTAATCCGTATTTGAC (site TACAGGCCTGT)” it is 0.
Regarding “TACATCTCATGGACCGGTTTTCCCGGTAATCCGTATTTGTG (site TACATCTCTCA)”, the “recombinant UMI read abundance (log10)” value came out at 0.976.
The figure for “TACATGACATGGACCGGTTTTCCCGGTAATCCGTATTTGCT (site TACATGACTAG)” is 2.15.
Next, “TACATGACATGGACCGGTTTTCCCGGTAATCCGTATTTGCT (site TACCTGACTAG)”: 0.938.
Next, “TACATGACATGGACCGGTTTTCCCGGTAATCCGTATTTGCT (site TACGTGACTAG)”: 0.566.
For “TACATGACATGGACCGGTTTTCCCGGTAATCCGTATTTGCT (site TACTTGACTAG)”, the “recombinant UMI read abundance (log10)” value worked out at 0.0568.
Regarding “TACCCTGCATGGACCGGTTTTCCCGGTAATCCGTATTTGCA (site TACCCTGCTTG)”, the “recombinant UMI read abundance (log10)” value was determined as 0.
As to “TACCGAACATGGACCGGTTTTCCCGGTAATCCGTATTTGGA (site TACCGAACTTC)”, the “recombinant UMI read abundance (log10)” value was 0.277.
The figure for “TACCTTACATGGACCGGTTTTCCCGGTAATCCGTATTTGCG (site TACCTTACTCG)” is 0.0203; for “TACGATGCATGGACCGGTTTTCCCGGTAATCCGTATTTGCT (site TACGATGCTAG)” it is 1.98.
Next, “TACGCCACATGGACCGGTTTTCCCGGTAATCCGTATTTGAG (site TACGCCACTCT)”: 0.652; “TACGGTACATGGACCGGTTTTCCCGGTAATCCGTATTTGGT (site TACGGTACTAC)”: 0.321.
The figure for “TACGTTTCATGGACCGGTTTTCCCGGTAATCCGTATTTGCC (site TACGTTTCTGG)” is 1.7.
Turning to “TACTAATCATGGACCGGTTTTCCCGGTAATCCGTATTTGGG (site TACTAATCTCC)”, the “recombinant UMI read abundance (log10)” value amounted to 0.0128.
“TACTCAGCATGGACCGGTTTTCCCGGTAATCCGTATTTGGA (site TACTCAGCTTC)”: the “recombinant UMI read abundance (log10)” value is 0.619.
Next, “TACTCCGCATGGACCGGTTTTCCCGGTAATCCGTATTTGTC (site TACTCCGCTGA)”: 2.18; “TACTGACCATGGACCGGTTTTCCCGGTAATCCGTATTTGGA (site TACTGACCTTC)”: 0.0192.
Next, “TACTGACCATGGACCGGTTTTCCCGGTAATCCGTATTTGGG (site TACTGACCTCC)”: 0.0283; “TAGAATACATGGACCGGTTTTCCCGGTAATCCGTATTTGCA (site AAGAATACTTG)”: 0.559.
Next, “TAGAATACATGGACCGGTTTTCCCGGTAATCCGTATTTGCA (site CAGAATACTTG)”: 0.572; “TAGAATACATGGACCGGTTTTCCCGGTAATCCGTATTTGCA (site GAGAATACTTG)”: 0.196.
For “TAGAATACATGGACCGGTTTTCCCGGTAATCCGTATTTGCA (site TAAAATACTTG)”, the “recombinant UMI read abundance (log10)” value stood at 0.792.
Turning to “TAGAATACATGGACCGGTTTTCCCGGTAATCCGTATTTGCA (site TACAATACTTG)”, the “recombinant UMI read abundance (log10)” value turned out to be 0.745.
The figure for “TAGAATACATGGACCGGTTTTCCCGGTAATCCGTATTTGCA (site TAGAAAACTTG)” is 0.00693; for “TAGAATACATGGACCGGTTTTCCCGGTAATCCGTATTTGCA (site TAGAACACTTG)” it is 0.
Next, “TAGAATACATGGACCGGTTTTCCCGGTAATCCGTATTTGCA (site TAGAAGACTTG)”: 0.00484.
Consider “TAGAATACATGGACCGGTTTTCCCGGTAATCCGTATTTGCA (site TAGAATACTAG)”, for which the “recombinant UMI read abundance (log10)” value was determined as 0.
“TAGAATACATGGACCGGTTTTCCCGGTAATCCGTATTTGCA (site TAGAATACTCG)”: the “recombinant UMI read abundance (log10)” value amounted to 0.
Next, “TAGAATACATGGACCGGTTTTCCCGGTAATCCGTATTTGCA (site TAGAATACTGG)”: 0.
The figure for “TAGAATACATGGACCGGTTTTCCCGGTAATCCGTATTTGCA (site TAGAATACTTA)” is 0.
Next, “TAGAATACATGGACCGGTTTTCCCGGTAATCCGTATTTGCA (site TAGAATACTTC)”: 0.0185; “TAGAATACATGGACCGGTTTTCCCGGTAATCCGTATTTGCA (site TAGAATACTTG)”: 2.18.
For the sequence “TAGAATACATGGACCGGTTTTCCCGGTAATCCGTATTTGCA (site TAGAATACTTT)”, the “recombinant UMI read abundance (log10)” value amounted to 0.
The figure for “TAGAATACATGGACCGGTTTTCCCGGTAATCCGTATTTGCA (site TAGAATCCTTG)” is 0; for “TAGAATACATGGACCGGTTTTCCCGGTAATCCGTATTTGCA (site TAGAATGCTTG)” it is 0.
Next, “TAGAATACATGGACCGGTTTTCCCGGTAATCCGTATTTGCA (site TAGAATTCTTG)”: 0.
The figure for “TAGAATACATGGACCGGTTTTCCCGGTAATCCGTATTTGCA (site TAGACTACTTG)” is 0.486.
Take “TAGAATACATGGACCGGTTTTCCCGGTAATCCGTATTTGCA (site TAGAGTACTTG)”: the “recombinant UMI read abundance (log10)” value was determined as 0.446.
In the case of “TAGAATACATGGACCGGTTTTCCCGGTAATCCGTATTTGCA (site TAGATTACTTG)”, the “recombinant UMI read abundance (log10)” value was 0.00714.
Next, “TAGAATACATGGACCGGTTTTCCCGGTAATCCGTATTTGCA (site TAGCATACTTG)”: 0.783.
In the case of “TAGAATACATGGACCGGTTTTCCCGGTAATCCGTATTTGCA (site TAGGATACTTG)”, the “recombinant UMI read abundance (log10)” value was determined as 1.71.
Take “TAGAATACATGGACCGGTTTTCCCGGTAATCCGTATTTGCA (site TAGTATACTTG)”: the “recombinant UMI read abundance (log10)” value came out at 1.34.
The figure for “TAGAATACATGGACCGGTTTTCCCGGTAATCCGTATTTGCA (site TATAATACTTG)” is 0.633; for “TAGAATACATGGACCGGTTTTCCCGGTAATCCGTATTTGCA (site TCGAATACTTG)” it is 0.00888.
On to “TAGAATACATGGACCGGTTTTCCCGGTAATCCGTATTTGCA (site TGGAATACTTG)”, for which the “recombinant UMI read abundance (log10)” value amounted to 0.
Next, “TAGAATACATGGACCGGTTTTCCCGGTAATCCGTATTTGCA (site TTGAATACTTG)”: 0.27; “TAGACTTCATGGACCGGTTTTCCCGGTAATCCGTATTTGGT (site TAGACTTCTAC)”: 1.64.
